Here are results for 19 compounds from patent publication US20230303540A1 (Merck Sharp & Dohme LLC, priority 2020, published 2023).

This experiment addresses GST-tagged truncated human mutant G2019S LRRK2 (Homo sapiens, UniProt Q5S007, G2019S). The experiment in a line: LRRK2 G2019S Km ATP LanthaScreen assay. The class given is biochemical. To be noted: 134 μM ATP (Km ATP), LRRKtide substrate, mean IC50 values; read-out: LRRK2 pIC50 (converted). The essentials: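 LanthaScreen TR-FRET read with fluorescein-LRRKtide and 134 μM ATP (Km) in Tris pH 8.5/10 mM MgCl2 buffer. The enzyme was preincubated 15 min with compound at room temperature, and the reaction ran 90 min at ambient temperature. Stopped with EDTA plus Tb anti-phospho-LRRKtide antibody; the 520/495 nm ratio gave a 4-parameter logistic IC50, mean of several runs.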
With `Cc1nn(C2CC3(C2)CN(C2COC2)C3)cc1Nc1ncc2ccc(N3C(=O)C4CCC3C4)cc2n1` (single isomer, unassigned) [Ex-8.5, (1R,4S) or (1S,4R)-2-(2-((3-methyl-1-(2-(oxetan-3-yl)-2-azaspiro[3.3]heptan-6-yl)-1H-pyrazol-4-yl)amino)quinazolin-7-yl)-2-azabicyclo[2.2.1]heptan-3-one], the IC50 was 0.625 nM. Next, `Cc1nn(C2CC3(C2)CN(C2COC2)C3)cc1Nc1ncc2ccc(N3C(=O)C4CCC3C4)cc2n1` (single isomer, unassigned) [Ex-8.6, (1R,4S) or (1S,4R)-2-[2-({3-methyl-1-[2-(oxetan-3-yl)-2-azaspiro[3.3]heptan-6-yl]-1H-pyrazol-4-yl}amino)quinazolin-7-yl]-2-azabicyclo[2.2.1]heptan-3-one]: 4.86 nM. As for `Cc1c(Nc2ncc3cc(Cl)c(N4CCC(C)(O)CC4C)cc3n2)cnn1C1CC1` (single isomer, unassigned) [Ex-9.1, (2R,4S or 2S,4R, or 2S,4S, or 2R,4R)-1-(6-Chloro-2-((1-cyclopropyl-5-methyl-1H-pyrazol-4-yl)amino)quinazolin-7-yl)-2,4-dimethylpiperidin-4-ol], the IC50 was 4.68 nM. Take `Cc1c(Nc2ncc3cc(Cl)c(N4CCC(C)(O)CC4C)cc3n2)cnn1C1CC1` (single isomer, unassigned) [Ex-9.2, (2R,4S or 2S,4R, or 2S,4S, or 2R,4R)-1-(6-Chloro-2-((1-cyclopropyl-5-methyl-1H-pyrazol-4-yl)amino)quinazolin-7-yl)-2,4-dimethylpiperidin-4-ol]: the IC50 is 1.06 nM. On to `Cc1c(Nc2ncc3cc(Cl)c(N4CCN(C5COC(C)(C)C5)CC4)cc3n2)cnn1C1CC1` (single isomer, unassigned) [Ex-12.1], for which the IC50 was 2.93 nM. As to `Cc1c(Nc2ncc3cc(Cl)c(N4CCN(C5(C)COC(C)(C)C5)CC4)cc3n2)cnn1C1CC1` (single isomer, unassigned) [Ex-12.2], the IC50 was 0.721 nM. Take `Cc1c(Nc2ncc3cc(Cl)c(N4CCN(C5(C)COC(C)(C)C5)CC4)cc3n2)cnn1C1CC1` (single isomer, unassigned) [Ex-12.3]: the IC50 was 186 nM. Regarding `Cc1c(Nc2ncc3cc(Cl)c(N4CCN(C5COC(C)(C)C5)CC4)cc3n2)cnn1C1CC1` (single isomer, unassigned) [Ex-12.5, 6-chloro-N-(1-cyclopropyl-5-methyl-1H-pyrazol-4-yl)-7-(4-(5,5-dimethyltetrahydrofuran-3-yl)piperazin-1-yl)quinazolin-2-amine], the IC50 is 0.56 nM. For `CC1CN(c2cc3nc(Nc4cnn(C5CC5)c4Cl)ncc3cc2Cl)CCN1C1COCC1O` (single isomer, unassigned) [Ex-12.6, (3S,4S) or (3R, 4R)-4-((R) or (S)-4-(4-(6-chloro-2-((5-chloro-1-cyclopropyl-1H-pyrazol-4-yl)amino)quinazolin-7-yl)-2-methylpiperazin-1-yl)tetrahydrofuran-3-ol], the IC50 is 13.6 nM. Next, `CC1CN(c2cc3nc(Nc4cnn(C5CC5)c4Cl)ncc3cc2Cl)CCN1C1COCC1O` (single isomer, unassigned) [Ex-12.7, (3S,4S) or (3R, 4R)-4-((R) or (S)-4-(4-(6-chloro-2-((5-chloro-1-cyclopropyl-1H-pyrazol-4-yl)amino)quinazolin-7-yl)-2-methylpiperazin-1-yl)tetrahydrofuran-3-ol]: 4.36 nM; `CC1CN(C2COCC2O)CCN1c1cc2nc(Nc3cnn(C4CC4)c3Cl)ncc2cc1Cl` (single isomer, unassigned) [Ex-12.8, (3S,4S) or (3R, 4R)-4-((R) or (S)-4-(6-chloro-2-((5-chloro-1-cyclopropyl-1H-pyrazol-4-yl)amino)quinazolin-7-yl)-3-methylpiperazin-1-yl)tetrahydrofuran-3-ol]: 0.088 nM; `CC1CN(C2COCC2O)CCN1c1cc2nc(Nc3cnn(C4CC4)c3Cl)ncc2cc1Cl` (single isomer, unassigned) [Ex-12.9, (3S,4S) or (3R, 4R)-4-((R) or (S)-4-(6-chloro-2-((5-chloro-1-cyclopropyl-1H-pyrazol-4-yl)amino)quinazolin-7-yl)-3-methylpiperazin-1-yl)tetrahydrofuran-3-ol]: 8.64 nM. For the compound `O[C@@H]1COC[C@@H]1N1CCN(c2cc3nc(Nc4cnn(C56CC(C5)C6)c4Cl)ncc3cc2Cl)CC1` (single isomer, unassigned) [Ex-13.2, (3S,4S) or (3R,4R)-4-(4-(2-((1-(bicyclo[1.1.1]pentan-1-yl)-5-chloro-1H-pyrazol-4-yl)amino)-6-chloroquinazolin-7-yl)piperazin-1-yl)tetrahydrofuran-3-ol], the IC50 is 3.81 nM. Turning to `Cc1cc2cnc(Nc3cnn(C45CC(C4)C5)c3Cl)nc2cc1N1CCN(C2COCC2O)CC1` (single isomer, unassigned) [Ex-13.3, (3S,4S) or (3R, 4R)-4-(4-(2-((1-(bicyclo[1.1.1]pentan-1-yl)-5-chloro-1H-pyrazol-4-yl)amino)-6-methylquinazolin-7-yl)piperazin-1-yl)tetrahydrofuran-3-ol], the IC50 is 6.98 nM. Turning to `Cc1cc2cnc(Nc3cnn(C45CC(C4)C5)c3Cl)nc2cc1N1CCN(C2(C)COCC2O)CC1` (single isomer, unassigned) [Ex-13.4, (3S,4S) or (3R, 4R)-4-(4-(2-((1-(bicyclo[1.1.1]pentan-1-yl)-5-chloro-1H-pyrazol-4-yl)amino)-6-methylquinazolin-7-yl)piperazin-1-yl)-4-methyltetrahydrofuran-3-ol], the IC50 was 0.267 nM. Next, `Cc1cc2cnc(Nc3cnn(C45CC(C4)C5)c3Cl)nc2cc1N1CCN(C2(C)COCC2O)CC1` (single isomer, unassigned) [Ex-13.5, (3S,4S) or (3R, 4R)-4-(4-(2-((1-(bicyclo[1.1.1]pentan-1-yl)-5-chloro-1H-pyrazol-4-yl)amino)-6-methylquinazolin-7-yl)piperazin-1-yl)-4-methyltetrahydrofuran-3-ol]: 9.89 nM; `Cc1c(Nc2ncc3cc(Cl)c(N4CCN(C5COCC5O)CC4)cc3n2)cnn1C(F)F` (single isomer, unassigned) [Ex-13.6, (3S,4S) or (3R,4R)-4-(4-(6-chloro-2-((1-(difluoromethyl)-5-methyl-1H-pyrazol-4-yl)amino)quinazolin-7-yl)piperazin-1-yl)tetrahydrofuran-3-ol]: 0.668 nM; `Cc1c(Nc2ncc3cc(Cl)c(N4CCN(C5COCC5O)CC4)cc3n2)cnn1C(F)F` (single isomer, unassigned) [Ex-13.7, (3S,4S) or (3R, 4R)-4-(4-(6-chloro-2-((1-(difluoromethyl)-5-methyl-1H-pyrazol-4-yl)amino)quinazolin-7-yl)piperazin-1-yl)tetrahydrofuran-3-ol]: 31.6 nM.

In the case of `CC1(N2CCN(c3cc4nc(Nc5cnn(C67CC(F)(C6)C7)c5Cl)ncc4cc3Cl)CC2)COCC1O` (single isomer, unassigned) [Ex-13.8, (3S,4S) or (3R,4R)4-(4-(6-chloro-2-((5-chloro-1-(3-fluorobicyclo[1.1.1]pentan-1-yl)-1H-pyrazol-4-yl)amino)quinazolin-7-yl)piperazin-1-yl)-4-methyltetrahydrofuran-3-ol], the IC50 is 1.69 nM.
